Assays:
[1] = 101.33 kPa, Liquid; for viscosity: Cone and plate viscometry; for mass density: Vibrating tube method; for electrical conductivity: conductivity meter (DDJS-308A)
[2] = refractive index (Na D-line) (dimensionless); conditions: 101.33 kPa, Liquid, Standard Abbe refractometry

C[C@H](N)C(=O)[O-].C[N+](C)(C)CCO [2-hydroxy-N,N,N-trimethylethanaminium L-alaninate]
Conditions | electrical conductivity, [1] [S/m] | mass density, [1] [kg/m3] | refractive index, [2] | viscosity, [1] [mPa·s]
293.15 K | – | – | 1.5146 | –
298.15 K | 0.00213 | 1112.94 | 1.514 | 385.6
303.15 K | 0.00577 | 1110.07 | 1.5127 | 234.9
308.15 K | 0.00907 | 1107.01 | 1.5118 | 136.8
313.15 K | 0.0126 | 1104.04 | 1.5105 | 89
318.15 K | 0.017 | 1101.21 | 1.5094 | 51.8
323.15 K | 0.0249 | 1098.37 | 1.5084 | 31.5
328.15 K | 0.0309 | 1095.54 | 1.5072 | 21.5
333.15 K | 0.0397 | 1092.69 | 1.506 | 14
338.15 K | 0.0518 | 1089.85 | 1.5052 | 10
343.15 K | 0.0655 | 1087.04 | 1.5041 | 7.4
348.15 K | 0.0822 | 1084.27 | – | 5.7
353.15 K | 0.101 | 1081.51 | – | 4.4

C[N+](C)(C)CCO.NCCC(=O)[O-] [2-hydroxy-N,N,N-trimethylethanaminium β-alaninate]
Conditions | electrical conductivity, [1] [S/m] | mass density, [1] [kg/m3] | refractive index, [2] | viscosity, [1] [mPa·s]
293.15 K | – | – | 1.5322 | –
298.15 K | 0.00071 | 1120.29 | 1.5313 | 5092.1
303.15 K | 0.00143 | 1117.51 | 1.5306 | 3022.2
308.15 K | 0.00268 | 1114.55 | 1.5294 | 1820.4
313.15 K | 0.00494 | 1111.77 | 1.5285 | 1146.2
318.15 K | 0.00907 | 1108.98 | 1.5277 | 723.2
323.15 K | 0.0134 | 1106.2 | 1.5266 | 470.7
328.15 K | 0.0178 | 1103.43 | 1.526 | 322.4
333.15 K | 0.0227 | 1100.63 | 1.5249 | 220.7
338.15 K | 0.0295 | 1097.83 | 1.5238 | 155.9
343.15 K | 0.0379 | 1095.04 | 1.5225 | 112
348.15 K | 0.0496 | 1092.32 | – | 79.3
353.15 K | 0.0615 | 1089.6 | – | 56.7

C[N+](C)(C)CCO.N[C@@H](CO)C(=O)[O-] [2-hydroxy-N,N,N-trimethylethanaminium L-serinate]
Conditions | electrical conductivity, [1] [S/m] | mass density, [1] [kg/m3] | refractive index, [2] | viscosity, [1] [mPa·s]
293.15 K | – | – | 1.5447 | –
298.15 K | 0.00093 | 1191.51 | 1.5429 | 11544
303.15 K | 0.00145 | 1188.65 | 1.5416 | 6543.1
308.15 K | 0.00229 | 1185.79 | 1.5408 | 3793.3
313.15 K | 0.00359 | 1182.9 | 1.5397 | 2186.5
318.15 K | 0.00553 | 1179.92 | 1.5388 | 1306
323.15 K | 0.00833 | 1176.87 | 1.5382 | 811.5
328.15 K | 0.0122 | 1173.97 | 1.5366 | 522.9
333.15 K | 0.0175 | 1171.2 | 1.5349 | 346.6
338.15 K | 0.0266 | 1168.38 | 1.5341 | 237.7
343.15 K | 0.037 | 1165.5 | 1.5326 | 167.5
348.15 K | 0.0495 | 1162.54 | – | 120.1
353.15 K | 0.0688 | 1159.37 | – | 90.2

C[N+](C)(C)CCO.NCC(=O)[O-] [2-hydroxy-N,N,N-trimethylethanaminium glycinate]
Conditions | electrical conductivity, [1] [S/m] | mass density, [1] [kg/m3] | refractive index, [2] | viscosity, [1] [mPa·s]
293.15 K | – | – | 1.5238 | –
298.15 K | 0.00677 | 1145.2 | 1.5224 | 182.3
303.15 K | 0.0104 | 1142.31 | 1.5213 | 119.9
308.15 K | 0.0147 | 1139.43 | 1.5204 | 84.3
313.15 K | 0.022 | 1136.7 | 1.5194 | 50.2
318.15 K | 0.0292 | 1133.97 | 1.5182 | 29.4
323.15 K | 0.0388 | 1131.22 | 1.5171 | 19.9
328.15 K | 0.0497 | 1128.46 | 1.5158 | 14.3
333.15 K | 0.0609 | 1125.7 | 1.5148 | 10.4
338.15 K | 0.0781 | 1122.93 | 1.5137 | 7.2
343.15 K | 0.0993 | 1120.22 | 1.5125 | 5.5
348.15 K | 0.122 | 1117.53 | – | 4.3
353.15 K | 0.15 | 1114.83 | – | 3.5

C[N+](C)(C)CCO.O=C([O-])[C@@H]1CCCN1 [2-hydroxy-N,N,N-trimethylethanaminium L-prolinate]
Conditions | electrical conductivity, [1] [S/m] | mass density, [1] [kg/m3] | refractive index, [2] | viscosity, [1] [mPa·s]
293.15 K | – | – | 1.5419 | –
298.15 K | 3e-05 | 1121.04 | 1.5408 | 10644
303.15 K | 0.00013 | 1118.21 | 1.5402 | 5437.3
308.15 K | 0.00035 | 1115.35 | 1.539 | 2824.6
313.15 K | 0.0007 | 1112.49 | 1.5379 | 1515.3
318.15 K | 0.0013 | 1109.61 | 1.5367 | 839.1
323.15 K | 0.00204 | 1106.69 | 1.5355 | 463.5
328.15 K | 0.00291 | – | 1.5344 | 307
333.15 K | 0.00435 | 1100.61 | 1.5329 | 163.7
338.15 K | 0.00552 | 1097.81 | 1.5317 | 114
343.15 K | 0.00649 | 1095.03 | 1.5306 | 70.1
348.15 K | 0.00779 | 1092.12 | – | 46.3
353.15 K | 0.00941 | 1089.39 | – | 33.7

From the NIST ThermoML archive (doi:10.1021/je301103d)
